# Measurements: patent US20130172408A1, “Medicaments Based on Dinuclear Arene Ruthenium Complexes Comprising Bridging Thiolato, Selenolato or Alkoxo Ligands” (Universite de Neuchatel, priority 2010, published 2013)
# Where “and” joins values, the source holds several entries; their conditions need not be identical. Identical values can stand only once. Like-named read-outs stand apart in the source and are kept apart here.
# Key:
# [1] = system: A2780cisR human ovarian cancer cells (cisplatin-resistant); experiment: MTT assay, inhibition of cell growth, A2780cisR; assay type: cell-based
# Description: (§1) Human A2780 and A2780cisR ovarian carcinoma cells were obtained from the European Centre of Cell Cultures (ECACC, Salisbury, UK) and maintained in culture as described by the provider. The cells were routinely grown in RPMI 1640 medium with GlutaMAX™ containing 5% foetal calf serum (FCS) and antibiotics (penicillin and streptomycin) at 37° C. and 5% CO2.
# (§2) The antiproliferative activity of complexes 9-20 was evaluated against the human ovarian A2780 cancer cell line and its cisplatin-resistant derivative A2780cisR using the MTT assay, which measures mitochondrial dehydrogenase activity as an indication of cell viability. For the evaluation of growth inhibition tests, the cells were seeded in 96-well plates (25×10^3 cells per well) and grown for 24 h in complete medium. Complexes were dissolved in DMSO and added to the required concentration to the cell culture for 72 h incubation. Solutions of the compounds were applied by diluting a freshly prepared stock solution of the corresponding compound in aqueous RPMI medium with GlutaMAX™ (20 mM). Following drug exposure, 3-(4,5-dimethylthiazol-2-yl)-2,5-diphenyltetrazolium bromide (MTT) was added to the cells at a final concentration of 0.25 mg/mL and incubated for 2 h, then the culture medium was aspirated and the violet formazan (artificial chromogenic precipitate of the reduction of tetrazolium salts by dehydrogenases and reductases) dissolved in DMSO. The optical density of each well (96-well plates) was quantified three times in triplicates at 540 nm using a multiwall plate reader (iEMS Reader MF, Labsystems, US), and the percentage of surviving cells was calculated from the ratio of absorbance of treated to untreated cells. The IC50 values for the inhibition of cell growth were determined by fitting the plot of the logarithmic percentage of surviving cells against the logarithm of drug concentration using a linear regression function. The median value and the median absolute deviation were obtained from the Excel™ software (Microsoft™) and those values are reported in Table 2.
# (§3) The toxicity of further compounds in accordance with the invention shown in FIGS. 9A and 9B and of the prior art compounds PA1 and PA2 was assessed as described in Example 6.
# [2] = system: A2780 human ovarian cancer cells; experiment: MTT assay, inhibition of cell growth, A2780; assay type: cell-based
# Description: as §1, §2, §3
# [3] = system: PLC/PRF/5 human liver cancer cells; settings: MTT assay, from JP 7089855; cited from earlier work
# [4] = Solubility (qualitative); assay type: physicochemical; settings: water and organic solvents
# Description: The spectroscopic data for the analogues [18]Cl, [19]Cl and [20]Cl is in excellent agreement with that reported previously Mashima et al., Schacht et al. Chérioux et al., cited above).
# [5] = Catalytic oxidation of glutathione to glutathione disulfide in aqueous solution
# [6] = Stability by 1H NMR spectroscopy; assay type: physicochemical; settings: 12 hours at 37° C. in DMSO-d6, in D2O/DMSO-d6 (95:5), and in DMSO-d6 with two drops of RPMI 1640 medium containing 5% foetal calf serum
# [7] = Catalytic oxidation of cysteine to cystine in aqueous solution
# [8] = as described in Example 6 (Table 3), read-out: Average IC50 A2780cisR
# [9] = as described in Example 6 (Table 3), read-out: Average IC50 A2780
# [10] = 72 h incubation, MTT, median value (Table 2), read-out: IC50 A2780cisR
# [11] = 72 h incubation, MTT, median value (Table 2), read-out: IC50 A2780
"IC50 [1, 8] [nM]","IC50 [2, 9] [nM]","IC50 [1, 10] [nM]","IC50 [2, 11] [nM]",Compound,further results
2190,3050,,,"CC1=C(C)C(C)C(C)=C1C.CC1=C(C)C(C)C(C)=C1C.Sc1ccccc1.Sc1ccccc1.Sc1ccccc1.[Ru+3].[Ru+3] [PA1, [(CsMes)2Ru2(p-SC6H5)3]^+, reference compound]",
,,,,"Cc1c(C)c(C)[c-](C)c1C.Cc1c(C)c(C)[c-](C)c1C.[Ru+3].[Ru+3].[S-]c1ccccc1.[S-]c1ccccc1.[S-]c1ccccc1 [PA1, [(CsMes)2Ru2(p-SC6H5)3]^+, reference compound]",IC50 [3]: 131 µg/mL
1550,1930,,,"CC1=C(C)C(C)C(C)=C1C.CC1=C(C)C(C)C(C)=C1C.Cc1ccc(S)cc1.Cc1ccc(S)cc1.Cc1ccc(S)cc1.[Ru+3].[Ru+3] [PA2, [(CsMe5)2Ru2(p-SC6H4Me)3]^+, reference compound]",
,,5600,4900,"CCCCCCCOc1ccc(C(=O)OCCCCc2ccccc2)cc1.CCCCCCCOc1ccc(C(=O)OCCCCc2ccccc2)cc1.[Cl-].[Ru+2].[Ru+2].[S-]c1ccccc1.[S-]c1ccccc1.[S-]c1ccccc1 [[10]Cl, [(C6H6—(CH2)4—O—C(O)—C6H4-p-O—(CH2)6CH3)2Ru2(SPh)3]^+]",
1360,815,1360,820,"COc1ccc(C=CC(=O)OCCc2ccccc2)cc1.COc1ccc(C=CC(=O)OCCc2ccccc2)cc1.[Cl-].[Ru+2].[Ru+2].[S-]c1ccccc1.[S-]c1ccccc1.[S-]c1ccccc1 [[11]Cl, [trans-(C6H6—(CH2)2—O—C(O)—CH═CH—C6H4-p-O—CH3)2Ru2(SPh)3]^+]",
545,420,560,490,"COc1ccc(C=CC(=O)OCCCCc2ccccc2)cc1.COc1ccc(C=CC(=O)OCCCCc2ccccc2)cc1.[Cl-].[Ru+2].[Ru+2].[S-]c1ccccc1.[S-]c1ccccc1.[S-]c1ccccc1 [[12]Cl, [trans-(C6H6—(CH2)4—O—C(O)—CH═CH—C6H4-p-O—CH3)2Ru2(SPh)3]^+]",
,,250,240,"Cc1ccc(C(C)C)cc1.Cc1ccc(C(C)C)cc1.[Cl-].[Ru+2].[Ru+2].[S-]c1ccccc1.[S-]c1ccccc1.[S-]c1ccccc1 [[18]C1, [(p-^iPrC6H4Me)2Ru2(SPh)3]^+]",
1200,433,1200,400,"Cc1c(C)c(C)c(C)c(C)c1C.Cc1c(C)c(C)c(C)c(C)c1C.[Cl-].[Ru+2].[Ru+2].[S-]c1ccccc1.[S-]c1ccccc1.[S-]c1ccccc1 [[19]Cl, [(C6Me6)2Ru2(SPh)3]^+]",
,,480,380,[(C6H6)2Ru2(SPh)3]^+ [[17]C1],"IC50 ([1]; as described in Example 6 (Table 3), listed as 17, read-out: Average IC50 A2780cisR): 253 nM and 477 nM; Solubility [4]: soluble in water and in organic solvents; IC50 ([2]; as described in Example 6 (Table 3), listed as 17, read-out: Average IC50 A2780): 240 nM and 377 nM"
,,2700,2200,[(C6H6—(CH2)2—O—C(O)—C6H4-p-O—(CH2)6CH3)2Ru2(SPh)3]^+ [[9]Cl],
77,130,80,130,[(p-^iPrC6H4Me)2Ru2(S-p-C6H4Me)3]^+ [[20]C1],Catalysis of the reaction of Glutathione (GSH) to form glutathione disulfide (GSSG) [5]: very high efficiency; Stability (1H NMR signals) [6]: stable under these conditions; Catalysis of the reaction of Cysteine (Cys) to form Cystine [7]: very high efficiency
500,500,,,[Ru2(p-C6Me6)2(p-SC6H4OH)3]^+ [Compound 22],
1470,533,,,[Ru2(p-MeC6H4Pr^i)2(p-SC6H4OH)3]^+ [Compound 21],
